How the values were obtained:
[1] = target: T1, Glycerol kinase (Homo sapiens, UniProt P32189); assay: Tested for its binding affinity against glycerol kinase (ATP competitive inhibition)
T1 sequence (P32189 whole entry): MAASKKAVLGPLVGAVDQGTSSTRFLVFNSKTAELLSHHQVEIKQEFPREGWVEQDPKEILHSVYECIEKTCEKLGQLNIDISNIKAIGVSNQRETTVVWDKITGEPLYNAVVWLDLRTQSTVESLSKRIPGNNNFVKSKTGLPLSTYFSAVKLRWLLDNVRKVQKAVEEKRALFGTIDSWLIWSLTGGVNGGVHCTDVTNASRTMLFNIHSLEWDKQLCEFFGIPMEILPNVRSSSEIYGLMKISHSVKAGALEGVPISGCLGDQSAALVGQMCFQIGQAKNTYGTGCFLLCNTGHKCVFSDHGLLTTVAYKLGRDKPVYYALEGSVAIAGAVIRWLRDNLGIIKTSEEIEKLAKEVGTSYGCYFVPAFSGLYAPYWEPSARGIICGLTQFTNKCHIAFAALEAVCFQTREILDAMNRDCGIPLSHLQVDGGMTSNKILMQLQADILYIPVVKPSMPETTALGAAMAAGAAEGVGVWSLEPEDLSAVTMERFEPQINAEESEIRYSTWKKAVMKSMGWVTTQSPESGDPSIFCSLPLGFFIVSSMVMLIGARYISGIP

[2] = pKa value was evaluated; format: physicochemical

SMILES | Ki [1] [µM] | pKa [2]
Nc1ncnc2c1ncn2[C@@H]1O[C@H](COP(=O)(O)OP(=O)(O)C(F)(F)P(=O)(O)O)[C@@H](O)[C@H]1O | 80 | 6.7
Nc1ncnc2c1ncn2[C@@H]1O[C@H](COP(=O)(O)OP(=O)(O)NP(=O)(O)O)[C@@H](O)[C@H]1O | 900 | –
Nc1ncnc2c1ncn2C1O[C@H](COP(=O)(O)OP(=O)(O)C[As](=O)(O)O)[C@@H](O)[C@H]1O (some centres undefined) | 2900 | 9
Nc1ncnc2c1ncn2[C@@H]1O[C@H](COP(=O)(O)OP(=O)(O)OP(=O)(O)O)[C@@H](O)[C@H]1O [ADENOSINE TRIPHOSPHATE] | 200 | 7.1
Nc1ncnc2c1ncn2[C@@H]1O[C@H](COP(=O)(O)OP(=O)(O)CP(=O)(O)O)[C@@H](O)[C@H]1O [PHOSPHOMETHYLPHOSPHONIC ACID ADENYLATE ESTER] | 300 | 8.4

— ChEMBL document CHEMBL1130575, “ATP analogs with non-transferable groups in the position as inhibitors of glycerol kinase” (Bioorg Med Chem Lett, 1997)
